Experiments:
[1] = Metabolic stability in mouse liver microsomes assessed as parent compound remaining at 0.5 uM after 10 mins in presence of NADPH by LC-MS/MS analysis
[2] = Antagonist activity at mAChR in human CCRF-CEM cells assessed as decrease in acetylacholine-stimulated Ca2+ flux preincubated for 25 mins followed by acetylacholine addition measured for 90 secs by calcium dye-based fluorescence assay; format: cell-based
[3] = Metabolic stability in human liver microsomes assessed as parent compound remaining at 0.5 uM after 10 mins in presence of NADPH by LC-MS/MS analysis
[4] = molecular target: T1, C-X-C chemokine receptor type 4 (Homo sapiens, UniProt P61073); test: Antagonist activity at human CXCR4 in CCRF-CEM cells assessed as decrease in SDF-1alpha stimulated Ca2+ flux preincubated for 25 mins followed by SDF-1alpha addition measured for 90 secs by calcium dye-based fluorescence assay; format: functional, cell-based
T1 sequence (P61073 whole entry): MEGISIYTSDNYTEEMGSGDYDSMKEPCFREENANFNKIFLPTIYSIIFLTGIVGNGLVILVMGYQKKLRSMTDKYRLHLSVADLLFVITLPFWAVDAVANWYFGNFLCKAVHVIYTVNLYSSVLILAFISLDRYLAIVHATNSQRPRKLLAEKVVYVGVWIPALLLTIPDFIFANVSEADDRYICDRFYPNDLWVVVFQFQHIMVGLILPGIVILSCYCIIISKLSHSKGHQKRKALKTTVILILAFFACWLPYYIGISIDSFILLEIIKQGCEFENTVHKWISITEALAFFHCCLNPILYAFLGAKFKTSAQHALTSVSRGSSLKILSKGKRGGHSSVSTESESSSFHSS

[5] = molecular target: T1, C-X-C chemokine receptor type 4; test: Agonist activity at CXCR4 in human CCRF-CEM cells assessed as induction of Ca2+ flux measured for 90 secs by calcium dye-based fluorescence assay; format: functional, cell-based
[6] = Permeability of the compound at pH 5.5 at 100 uM after 4 hrs by PAMPA
Cytochrome P450 2D6 = Cytochrome P450 2D6 (Homo sapiens, UniProt P10635); test: Inhibition of recombinant human CYP2D6 expressed in microsomes of insect cells using AMMC as substrate preincubated for 30 mins followed by NADP addition after 45 mins by fluorescence analysis
Chain of Cytochrome P450 2D6 (P10635 whole entry): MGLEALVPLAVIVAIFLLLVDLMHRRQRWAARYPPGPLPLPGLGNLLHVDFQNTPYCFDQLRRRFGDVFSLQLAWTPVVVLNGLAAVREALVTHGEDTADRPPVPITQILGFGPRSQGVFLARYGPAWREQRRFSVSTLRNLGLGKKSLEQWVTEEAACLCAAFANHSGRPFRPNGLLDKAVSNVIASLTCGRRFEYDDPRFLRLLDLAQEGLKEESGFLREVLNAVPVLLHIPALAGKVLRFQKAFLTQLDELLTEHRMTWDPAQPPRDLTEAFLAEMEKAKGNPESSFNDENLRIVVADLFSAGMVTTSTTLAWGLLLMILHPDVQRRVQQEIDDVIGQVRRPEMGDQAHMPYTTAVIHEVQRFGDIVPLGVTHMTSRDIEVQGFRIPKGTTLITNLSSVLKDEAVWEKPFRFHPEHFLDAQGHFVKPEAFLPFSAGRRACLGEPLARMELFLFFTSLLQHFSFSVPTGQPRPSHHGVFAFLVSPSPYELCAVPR

[7] = Permeability of the compound at pH 7.4 at 100 uM after 4 hrs by PAMPA
[8] = Agonist activity at mAChR in human CCRF-CEM cells assessed as induction of Ca2+ flux measured for 90 secs by calcium dye-based fluorescence assay; format: cell-based

Row | Compound | remaining at 10 min, 0.5 µM [1] [%] | IC50 [2] [µM] | remaining at 10 min, 0.5 µM [3] [%] | IC50 [4] [µM] | EC50 [5] [µM] | Papp at 4 h, 100 µM [6] [×10⁻⁶ cm/s] | IC50 (Cytochrome P450 2D6) [µM] | Papp at 4 h, 100 µM [7] [×10⁻⁶ cm/s] | EC50 [8] [µM]
1 | c1ccc2c(c1)CN[C@@H](CN(CCCCNCC1CCOCC1)[C@H]1CCCc3cccnc31)C2 | 48.5 | > 33.3 | 57.6 | 0.0529 | > 30 | 0.6 | 2.72 |  | > 30
2 | c1ccc2c(c1)CN[C@@H](CN(CCCCNCc1ccncc1)[C@H]1CCCc3cccnc31)C2 | 6.44 | > 33.3 | 1.92 | 0.0227 | > 30 | 0.65 | 0.145 |  | > 30
3 | c1ccc(CN(CCCCN(C[C@H]2Cc3ccccc3CN2)[C@H]2CCCc3cccnc32)Cc2ccccc2)cc1 | 0.298 | > 33.3 | 4.84 | > 16.7 | > 30 | 3.9 | 0.494 |  | > 30
4 | O=S1(=O)CCC(NCCCCN(C[C@H]2Cc3ccccc3CN2)[C@H]2CCCc3cccnc32)CC1 | 17.6 | > 33.3 | 11.7 | 0.0455 | > 30 |  | 0.853 |  | > 30
5 | c1ccc2c(c1)CN[C@@H](CN(Cc1ccc(CNCC3CCOCC3)cc1)[C@H]1CCCc3cccnc31)C2 |  | > 16.7 |  |  |  |  |  |  | > 30
6 | c1ccc2c(c1)CN[C@@H](CN(CCCCNC1CCCCC1)[C@H]1CCCc3cccnc31)C2 | 43.8 | > 33.3 | 46.1 | 0.0752 | > 30 | 1.45 | 0.524 |  | > 30
7 | NCc1ccc(CN(C[C@H]2Cc3ccccc3CN2)[C@H]2CCCc3cccnc32)cc1 |  | > 33.3 |  |  |  |  |  |  | > 30
8 | O=S1(=O)CCC(CNCCCCN(C[C@H]2Cc3ccccc3CN2)[C@H]2CCCc3cccnc32)CC1 | 39.3 | > 16.7 | 74 | 0.017 | > 30 |  | 1.17 |  | > 30
9 | c1ccc2c(c1)CN[C@@H](CN(CCCCNC1CCOCC1)[C@H]1CCCc3cccnc31)C2 | 55.8 | > 33.3 | 53 | 0.0294 | > 30 |  | 0.657 |  | > 30
10 | c1ccc2c(c1)CN[C@@H](CN(CCCCNCC1CCNCC1)[C@H]1CCCc3cccnc31)C2 | 37.9 | > 16.7 | 84.6 | 0.0365 | > 30 |  | 2.53 |  | > 30
11 | FC1(F)CCC(NCc2ccc(CN(C[C@H]3Cc4ccccc4CN3)[C@H]3CCCc4cccnc43)cc2)CC1 | 30.2 | > 16.7 | 10.8 |  | > 30 |  | 0.577 | 0.5 | > 30
12 | c1ccc2c(c1)CN[C@@H](CN(Cc1ccc(CNC3CCOCC3)cc1)[C@H]1CCCc3cccnc31)C2 | 34.8 | > 16.7 | 20.4 |  | > 30 |  | 0.507 | 9.2 | > 30
13 | c1ccc(CNCCCCN(C[C@H]2Cc3ccccc3CN2)[C@H]2CCCc3cccnc32)nc1 |  | > 30 |  |  |  |  |  |  | > 30
14 | c1ccc2c(c1)CN[C@@H](CN(CCCCNC1CCNCC1)[C@H]1CCCc3cccnc31)C2 | 38 | > 33.3 | 100 | 0.0634 | > 30 | 1.9 | 2.61 |  | > 30

Further lines, results first:

Row | remaining at 10 min, 0.5 µM [1] [%] | IC50 [2] [µM] | remaining at 10 min, 0.5 µM [3] [%] | IC50 [4] [µM] | EC50 [5] [µM] | Papp at 4 h, 100 µM [6] [×10⁻⁶ cm/s] | IC50 (Cytochrome P450 2D6) [µM] | Papp at 4 h, 100 µM [7] [×10⁻⁶ cm/s] | EC50 [8] [µM] | Compound
15 | 0.374 | 12.9 | 0.548 | 0.664 | > 30 | 4.8 | 1.16 | 29.4 | > 30 | c1ccc(CN(CCCCN(C[C@H]2Cc3ccccc3CN2)[C@H]2CCCc3cccnc32)Cc2ccccn2)nc1
16 | 1.4 | 11.5 | 0.432 | 0.471 | > 30 | 9.1 | 0.348 | 43.5 | > 30 | c1cncc(CN(CCCCN(C[C@H]2Cc3ccccc3CN2)[C@H]2CCCc3cccnc32)Cc2cccnc2)c1
17 | 10.7 | > 16.7 | 100 | 0.129 | > 30 | 26.4 | 0.51 | 82.9 | > 30 | NC/C=C/CN(C[C@H]1Cc2ccccc2CN1)[C@H]1CCCc2cccnc21
18 | 2.82 | > 16.7 | 49.4 | 0.0696 | > 30 |  | 0.629 |  | > 30 | c1ccc2c(c1)CN[C@@H](CN(CCCCNCC1CCSCC1)[C@H]1CCCc3cccnc31)C2
19 | 31.2 | 3.43 | 71.7 | 0.0201 | > 30 |  | 0.141 |  | > 30 | c1ccc(CNCCCCN(C[C@H]2Cc3ccccc3CN2)[C@H]2CCCc3cccnc32)cc1
20 |  | > 16.7 |  | 0.168 | > 30 |  |  |  | > 30 | FC1(F)CCC(CNCCCCN(C[C@H]2Cc3ccccc3CN2)[C@H]2CCCc3cccnc32)CC1
21 | 4.39 | 12.2 | 0.882 |  | > 30 |  | 0.084 | 38.5 | > 30 | c1ccc2c(c1)CN[C@@H](CN(Cc1ccc(CNCc3ccncc3)cc1)[C@H]1CCCc3cccnc31)C2
22 |  | > 16.7 |  |  |  |  |  |  | > 30 | C(=C\CN(C[C@H]1Cc2ccccc2CN1)[C@H]1CCCc2cccnc21)/CNCc1ccncc1
23 | 2.12 | 6.98 | 31.7 |  | > 30 | 0.9 | 1.45 | 4.9 | > 30 | FC1(F)CCC(NC/C=C/CN(C[C@H]2Cc3ccccc3CN2)[C@H]2CCCc3cccnc32)CC1
24 | 41.8 | > 16.7 | 50 | 0.158 | > 30 | 2.1 | 0.354 | 0.9 | > 30 | c1ccc2c(c1)CN[C@@H](CN(CCCCNCC1CCCCC1)[C@H]1CCCc3cccnc31)C2
25 | 23.2 | 8.76 | 14.9 |  | > 30 |  | 0.258 |  | > 30 | CC1(C)CCC(NCc2ccc(CN(C[C@H]3Cc4ccccc4CN3)[C@H]3CCCc4cccnc43)cc2)CC1
26 | 89.2 | 25.7 | 97.3 |  | > 30 |  | 0.032 |  | > 30 | NCc1cccc(CN(C[C@H]2Cc3ccccc3CN2)[C@H]2CCCc3cccnc32)c1
27 | 2.98 | 22 | 31.2 |  | > 30 | 1.8 | 0.709 | 5 | > 30 | C(=C\CN(C[C@H]1Cc2ccccc2CN1)[C@H]1CCCc2cccnc21)/CNCc1ccccn1
28 |  | 28.2 |  | 0.00371 | > 30 |  |  |  | > 30 | FC1(F)CCC(NCCCCN(C[C@H]2Cc3ccccc3CN2)[C@H]2CCCc3cccnc32)CC1
29 |  | 21.4 |  |  |  |  |  |  | > 30 | c1cncc(CNCc2ccc(CN(C[C@H]3Cc4ccccc4CN3)[C@H]3CCCc4cccnc43)cc2)c1
30 | 0.953 | 35.1 | 1.84 |  | > 30 |  | 0.453 | 24.4 | > 30 | C(=C\CN(C[C@H]1Cc2ccccc2CN1)[C@H]1CCCc2cccnc21)/CNCc1cccnc1
31 | 10.2 | 19.9 | 21.4 | 0.0153 | > 30 |  | 0.217 |  | > 30 | c1cncc(CNCCCCN(C[C@H]2Cc3ccccc3CN2)[C@H]2CCCc3cccnc32)c1
32 | 11.6 | 6.94 | 1.77 |  | > 30 | 1.6 | 0.377 |  | > 30 | c1ccc(CNCc2ccc(CN(C[C@H]3Cc4ccccc4CN3)[C@H]3CCCc4cccnc43)cc2)nc1
33 | 50 | 19.9 | 30.1 | 0.0776 | > 30 |  | 0.09 | 0.3 | > 30 | CC1(C)CCC(NCCCCN(C[C@H]2Cc3ccccc3CN2)[C@H]2CCCc3cccnc32)CC1
34 | 60.3 | 13 | 46.1 | 0.0438 | > 30 | 6.2 | 1.75 |  | > 30 | CC(C)(CCN(C[C@H]1Cc2ccccc2CN1)[C@H]1CCCc2cccnc21)CNCC1CCOCC1

Source: ChEMBL document CHEMBL4052827, “Discovery of Tetrahydroisoquinoline-Containing CXCR4 Antagonists with Improved in Vitro ADMET Properties” (J Med Chem, 2018)
